Assay results from PubChem BioAssay AID330 (DTP/NCI, 2004).
“And” between values parts separate entries of the source, which are not always exact repeats. Equal values may be shown once. Inconclusive results and toxic doses are left out.

Test system: P388 leukemia ip, CD2F1 mice, survival T/C
Experiment: NCI In Vivo Anticancer Drug Screen. Data for tumor model P388 Leukemia (intraperitoneal) in CD2F1 (CDF1) mice
Conditions: endpoint: median survival time, higher = longer survival
Procedure, shortened: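 Mice carrying the transplanted tumor received test compound or vehicle. Survival was recorded in each group, and the value is the treated-group measurement divided by that of the vehicle-treated control group.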

[1] = dose: 50.0 mg/kg/injection, schedule: Q01DX009 (ip), vehicle: saline
[2] = dose: 100.0 mg/kg/injection, schedule: Q01DX009 (ip), vehicle: saline
[3] = dose: 200.0 mg/kg/injection, schedule: Q01DX009 (ip), vehicle: saline
[4] = dose: 50.0 mg/kg/injection, schedule: Q01DX009 (ip), vehicle: water
[5] = dose: 100.0 mg/kg/injection, schedule: Q01DX009 (ip), vehicle: water
[6] = dose: 50.0 mg/kg/injection, schedule: Q01DX005 (ip), vehicle: saline with Tween-80
[7] = dose: 100.0 mg/kg/injection, schedule: Q01DX005 (ip), vehicle: saline with Tween-80
[8] = dose: 50.0 mg/kg/injection, schedule: Q01DX009 (ip), vehicle: Klucel (hydroxypropylcellulose) (HPC)
[9] = dose: 100.0 mg/kg/injection, schedule: Q01DX009 (ip), vehicle: Klucel (hydroxypropylcellulose) (HPC)
[10] = dose: 200.0 mg/kg/injection, schedule: Q01DX009 (ip), vehicle: Klucel (hydroxypropylcellulose) (HPC)
[11] = dose: 12.5 mg/kg/injection, schedule: Q01DX009 (ip), vehicle: saline with Tween-80
[12] = dose: 25.0 mg/kg/injection, schedule: Q01DX009 (ip), vehicle: saline with Tween-80
[13] = dose: 6.25 mg/kg/injection, schedule: Q01DX009 (ip), vehicle: saline with Tween-80
[14] = dose: 50.0 mg/kg/injection, schedule: Q01DX009 (ip), vehicle: saline with Tween-80

`O=C(CC(c1ccccc1Cl)C(C(=O)O)c1ccccc1)c1ccccc1` (centres undefined) was tested, and the T/C (dose: 50.0 mg/kg/injection, schedule: Q01DX005 (ip), vehicle: Klucel (hydroxypropylcellulose) (HPC)) was 100 % of control, the T/C (dose: 100.0 mg/kg/injection, schedule: Q01DX005 (ip), vehicle: Klucel (hydroxypropylcellulose) (HPC)) was 91 % of control and the T/C (dose: 200.0 mg/kg/injection, schedule: Q01DX005 (ip), vehicle: Klucel (hydroxypropylcellulose) (HPC)) was 99 % of control.

With `COc1cccc2c1C(=O)c1c(O)c3c(c(O)c1C2=O)CC(O)(C(C)=O)CC3OC1CC(NC(=O)C(CCCCN)NC(=O)C(N)CCN)C(O)C(C)O1` (centres undefined) the T/C (dose: 2.5 mg/kg/injection, schedule: Q04DX003 (ip), vehicle: water) was 94 % of control, the T/C (dose: 5.0 mg/kg/injection, schedule: Q04DX003 (ip), vehicle: water) was 94 % of control and the T/C (dose: 10.0 mg/kg/injection, schedule: Q04DX003 (ip), vehicle: water) was 98 % of control. The T/C (dose: 20.0 mg/kg/injection, schedule: Q04DX003 (ip), vehicle: water) was 101 % of control, the T/C (dose: 40.0 mg/kg/injection, schedule: Q04DX003 (ip), vehicle: water) was 105 % of control and the T/C (dose: 80.0 mg/kg/injection, schedule: Q04DX003 (ip), vehicle: distilled water + Tween-80) was 96 % of control. For the same compound, the T/C (dose: 160.0 mg/kg/injection, schedule: Q04DX003 (ip), vehicle: distilled water + Tween-80) was 105 % of control and the T/C (dose: 320.0 mg/kg/injection, schedule: Q04DX003 (ip), vehicle: distilled water + Tween-80) was 105 % of control.

`COCC(=O)c1ccc([N+](=O)[O-])cc1` was tested, and the T/C [1] was 98 % of control, the T/C [2] was 103 % of control and 104 % of control and the T/C [3] was 105 % of control and 111 % of control.

With `CN1C2CCCC1CC1(C2)NC(=O)NC1=O` (centres undefined) the T/C [4] was 99 % of control and the T/C [5] was 100 % of control.

In the case of `C=C(C)[C@@H]1CC[C@](C)(CCC#N)/C(=N\NC(N)=O)C1`, the T/C (dose: 100.0 mg/kg/injection, schedule: Q04DX003 (ip), vehicle: Klucel (hydroxypropylcellulose) (HPC)) is reported as 99 % of control, the T/C (dose: 200.0 mg/kg/injection, schedule: Q04DX003 (ip), vehicle: Klucel (hydroxypropylcellulose) (HPC)) is reported as 102 % of control and the T/C (dose: 400.0 mg/kg/injection, schedule: Q04DX003 (ip), vehicle: Klucel (hydroxypropylcellulose) (HPC)) is reported as 89 % of control.

In the case of `COc1ccccc1NC(=S)N/N=C\c1cc(N=Nc2ccccc2)cc(OC)c1O`, the T/C [6] is reported as 89 % of control and the T/C [7] is reported as 89 % of control.

`O=c1nc2n(CCO)c3ccccc3cc-2c(=O)[nH]1` was tested, and the T/C (dose: 60.0 mg/kg/injection, schedule: Q01DX005 (ip), vehicle: saline) was 96 % of control and the T/C (dose: 120.0 mg/kg/injection, schedule: Q01DX005 (ip), vehicle: saline) was 95 % of control.

In the case of `CCS(=O)(=O)OCCCNCCCOS(=O)(=O)CC`, the T/C (dose: 12.5 mg/kg/injection, schedule: Q01DX001 (ip), vehicle: saline) is reported as 124 % of control, the T/C (dose: 12.5 mg/kg/injection, schedule: Q04DX003 (ip), vehicle: saline) is reported as 154 % of control and the T/C (dose: 25.0 mg/kg/injection, schedule: Q01DX001 (ip), vehicle: saline) is reported as 86 % of control. The T/C (dose: 25.0 mg/kg/injection, schedule: Q01DX009 (ip), vehicle: saline) was 215 % of control, the T/C (dose: 25.0 mg/kg/injection, schedule: Q04DX003 (ip), vehicle: saline) was 160 % of control and the T/C [8] was 201 % of control. The T/C [1] was 268 % of control, the T/C (dose: 50.0 mg/kg/injection, schedule: Q04DX003 (ip), vehicle: saline) was 193 % of control and the T/C (dose: 100.0 mg/kg/injection, schedule: Q01DX001 (ip), vehicle: saline) was 156 % of control. The T/C [9] was 199 % of control, the T/C [2] was 277 % of control and the T/C (dose: 100.0 mg/kg/injection, schedule: Q04DX003 (ip), vehicle: saline) was 209 % of control. The T/C (dose: 200.0 mg/kg/injection, schedule: Q01DX001 (ip), vehicle: saline) was 173 % of control, the T/C [10] was 94 % of control and the T/C [3] was 175 % of control. The T/C (dose: 200.0 mg/kg/injection, schedule: Q04DX003 (ip), vehicle: saline) was 272 % of control and the T/C (dose: 400.0 mg/kg/injection, schedule: Q01DX001 (ip), vehicle: saline) was 181 % of control.

For `COc1cc(C=Nc2cccc(Br)c2)ccc1N(CCCl)CCCl`, the T/C (dose: 3.3 mg/kg/injection, schedule: Q01DX009 (ip), vehicle: saline with Tween-80) was 154 % of control, the T/C (dose: 5.0 mg/kg/injection, schedule: Q01DX009 (ip), vehicle: saline with Tween-80) was 200 % of control and the T/C (dose: 5.56 mg/kg/injection, schedule: Q01DX009 (ip), vehicle: saline with Tween-80) was 209 % of control. The T/C (dose: 8.33 mg/kg/injection, schedule: Q01DX009 (ip), vehicle: saline with Tween-80) was 186 % of control, the T/C (dose: 11.0 mg/kg/injection, schedule: Q04DX003 (ip), vehicle: other) was 165 % of control and the T/C [11] was 204 % of control and 227 % of control. The T/C (dose: 16.5 mg/kg/injection, schedule: Q04DX003 (ip), vehicle: other) was 184 % of control, the T/C (dose: 18.7 mg/kg/injection, schedule: Q01DX009 (ip), vehicle: saline with Tween-80) was 186 % of control and the T/C [12] was 166 % of control. For the same compound, the T/C (dose: 25.0 mg/kg/injection, schedule: Q04DX003 (ip), vehicle: other) was 230 % of control and the T/C (dose: 37.5 mg/kg/injection, schedule: Q04DX003 (ip), vehicle: other) was 107 % of control.

With `CC(=O)[O][Sn]([CH2]c1ccccc1)([CH2]c1ccccc1)[CH2]c1ccccc1` the T/C (dose: 0.75 mg/kg/injection, schedule: Q01DX009 (ip), vehicle: saline) was 115 % of control, the T/C (dose: 1.5 mg/kg/injection, schedule: Q01DX009 (ip), vehicle: saline) was 87 % of control and the T/C (dose: 3.0 mg/kg/injection, schedule: Q01DX009 (ip), vehicle: saline) was 105 % of control. The T/C (dose: 6.0 mg/kg/injection, schedule: Q01DX009 (ip), vehicle: saline) was 108 % of control.

With `O=C1NC(=O)C2C3OC(C12)C1C2C(=O)NC(=O)C2C31` (centres undefined) the T/C [6] was 105 % of control and the T/C [7] was 104 % of control.

`Cc1nn(C)c(NC(=O)c2ccccc2O)c1SC#N` was tested, and the T/C (dose: 6.25 mg/kg/injection, schedule: Q01DX005 (ip), vehicle: saline with Tween-80) was 93 % of control, the T/C (dose: 12.5 mg/kg/injection, schedule: Q01DX005 (ip), vehicle: saline with Tween-80) was 93 % of control and the T/C (dose: 25.0 mg/kg/injection, schedule: Q01DX005 (ip), vehicle: saline with Tween-80) was 93 % of control.

For `O=C1N/C(=N/OCc2ccccc2)C(F)C(NOCc2ccccc2)N1` (centres undefined), the T/C [8] was 96 % of control, the T/C [9] was 101 % of control and the T/C [10] was 97 % of control.

In the case of `COc1ccc2c(c1OC(C)=O)-c1cc(OC(C)=O)cc3c1C(C2)N(C(=O)CBr)CC3` (centres undefined), the T/C [13] is reported as 104 % of control and the T/C [11] is reported as 104 % of control.

With `Cc1nc2ccccc2c(C(=O)NO)[n+]1[O-]` the T/C [14] was 104 % of control, the T/C (dose: 100.0 mg/kg/injection, schedule: Q01DX009 (ip), vehicle: saline with Tween-80) was 100 % of control and the T/C (dose: 200.0 mg/kg/injection, schedule: Q01DX009 (ip), vehicle: saline with Tween-80) was 103 % of control.

With `CCOC(=O)CC(=N)C(C#N)C(=O)OCC` (centres undefined) the T/C [13] was 101 % of control, the T/C [11] was 101 % of control and the T/C [12] was 99 % of control. For the same compound, the T/C [14] was 99 % of control.

`COc1cccc2c1C(=O)c1c(O)c3c(c(O)c1C2=O)C[C@@](O)(C(C)=O)C[C@@H]3OC1CC(N2CCOCC2)C(O)C(C)O1` (some centres undefined) was tested, and the T/C (dose: 25.0 micrograms/kg/injection, schedule: Q04DX003 (ip), vehicle: water) was 112 % of control, the T/C (dose: 50.0 micrograms/kg/injection, schedule: Q04DX003 (ip), vehicle: water) was 101 % of control and 98 % of control and 108 % of control and the T/C (dose: 100.0 micrograms/kg/injection, schedule: Q04DX003 (ip), vehicle: water) was 115 % of control [middle of 4 runs].

For `Nc1nc2c(c(=O)[nH]1)N(C(=O)CCl)C(CNc1ccc(C(=O)NC(CCC(=O)O)C(=O)O)cc1)CN2` (centres undefined), the T/C [4] was 99 % of control, the T/C [5] was 103 % of control and the T/C (dose: 200.0 mg/kg/injection, schedule: Q01DX009 (ip), vehicle: water) was 101 % of control.

In the case of `O=c1c2cncnc2sc2nc3ccccc3n12`, the T/C (dose: 60.0 mg/kg/injection, schedule: Q01DX005 (ip), vehicle: saline with Tween-80) is reported as 95 % of control, the T/C (dose: 120.0 mg/kg/injection, schedule: Q01DX005 (ip), vehicle: saline with Tween-80) is reported as 94 % of control and the T/C (dose: 240.0 mg/kg/injection, schedule: Q01DX005 (ip), vehicle: saline with Tween-80) is reported as 88 % of control.

With `CCc1ccccc1NC(=O)NCC(C)C` the T/C [8] was 105 % of control, the T/C [9] was 97 % of control and the T/C [10] was 105 % of control.
